Test results from US20240165259A1, “BIOORTHOGONAL REACTION SUITABLE FOR CLICK/UNCLICK APPLICATIONS” (DANA-FARBER CANCER INSTITUTE, INC., priority 2021, published 2024).

Tests used:
[1] = target: T1, lysozyme-TAMRA conjugate 6″conj (Gallus gallus, UniProt P00698); experiment: Screening of diboron derivatives 27″-31″ for cleavage of conjugate 6″conj; format: biochemical; details: PBS, 1 h
T1 construct: purchased
Description: The impact of boron ligands on the dissociation reaction was also explored. […] Lysozyme-TAMRA conjugate 6″conj was treated with 5 or 50 μM of each diboron reagent in PBS and analyzed by in-gel fluorescence after 1 h.
A solution of diborons 27″-31″ (0.34 μL, 125 μM or 1.25 mM in DMSO; 5 or 50 μM final concentration) was added to a solution of lysozyme-fluorophore conjugate 6″conj (8 μL, 0.50 μM in PBS, pH 7.4). The reaction mixtures were incubated at room temperature in the dark. After 60 min, each reaction mixture was quenched by adding trimethylamine N-oxide (0.93 uL, 100 mM in H2O; 10 mM final concentration) and diluted with 1.6×SDS sample buffer (14.32 μL). Each solution (10 μL) was loaded onto a 15-well 12% SDS-PAGE gel. The gel was run at room temperature and at 175 V for 50 min. In-gel fluorescence was imaged with a Typhoon™ FLA 9500 (GE) at 532 nm with a photomultiplier tube (PMT) setting of 500 V (FIG. 41).

[2] = test system: cell surface HaloTag-GFP expressed on HEK293T cells; experiment: Live cell labeling experiment (confocal microscopy); format: cell-based; details: 10 μM 21′, then 10 μM 22′ for 1 hour, fixed
Description: Live cell labeling by hydroamination was explored. HEK293T cells were transiently transfected with a cell surface HaloTag-GFP construct, treated with 10 μM HaloTag linker-conjugated difluoropropargyl ether 21′, washed, and incubated with 10 μM TAMRA-conjugated hydroxylamine 22′ for 1 hour. The cells were then fixed and visualized by confocal microscopy.
Cell Culture: HEK-293T cells were cultured in Dulbecco's Modified Eagle Medium (DMEM, Corning®) containing 10% fetal bovine serum (FBS, Sigma), 100 units/mL penicillin, and 0.1 mg/mL streptomycin (Sigma) in a humidified chamber at 37° C. with 5% CO2. Cells were passaged and dissociated with 0.25% trypsin, 0.1% EDTA in HBSS (Corning®). Cells tested negative for […] by the MycoAlert PLUS Mycoplasma Detection Kit (Lonza) following the manufacturer's protocol.
Preparation for 12-Well Plate: Coverslips (15 mm circle, thickness 0.13-0.17 mm) were acid-washed according to the Cold Spring Harbor protocol (Fischer et al., Cold Spring Harb. Protoc. 2008:pdb.prot4988 (2008)). A coverslip was added to each well in a 12-well plate followed by an aqueous solution of poly-D-lysine (0.1 mg/mL, 30-70 kDa, 800 μL). The plate was gently shaken to distribute the solution evenly, incubated at room temperature for 1 hour, washed using 1 mL of autoclaved deionized water for each well, and dried overnight. […]

[3] = Cleavage reaction progress monitoring by 1H NMR spectroscopy; format: physicochemical; details: 4 mM enamine N-oxide, 10 mM B2(OH)4, 10% DMSO-d6/23% CD3OD/d-PBS, pH 7.4
Source text: Diboron reagents and enamine N-oxide structures in hand, the reaction kinetics were characterized and the substrate scope for the cleavage reaction was explored. A series of chromogenic probes 32″, 38″, 39″ featuring a representative series of nitrogen, oxygen, and sulfur-bearing leaving groups were obtained. Each probe was synthesized from cyclooct-2-ynol either by Mitsunobu reaction or carbamoylation with the corresponding p-nitro(thio)phenol or p-nitrophenyl isocyanate followed by hydroamination with N,N-diethylhydroxylamine. The formation of the intended products was verified by ^1H NMR spectroscopy with caffeine as an internal standard (FIG. 29A, FIG. 33, FIG. 34). […] Over the course of 24 h, iminium ion 35″ hydrolyzed to cyclooctenone 36″ and diethylamine 37″. The other substrates reacted analogously with the same quantitative formation of iminium ion 35″ at the initial time point (FIG. 29B). […]
The chromogenic probes that were prepared were intended for stopped flow kinetics experiments using UV-vis spectroscopy; however, the NMR studies precluded the use of one of these compounds for this purpose. […] Since a change in UV absorbance is contingent on p-nitroaniline formation, it could not be used or any analogous carbamate-based chromogenic or fluorogenic outputs as accurate proxies for product release. Instead, a fluorescence polarization assay was employed. […]

[4] = Retro-Cope elimination of linear alkynes 1′, 4′, 6′ with N,N-diethylhydroxylamine (Scheme 1); format: physicochemical; details: with N,N-diethylhydroxylamine (2′)
Description: The impact of inductively withdrawing halogen and chalcogen substituents at the propargylic and terminal positions of the alkyne were evaluated. Retro-Cope elimination reaction between propargyl ether 1′ and N,N-diethylhydroxylamine (2′) was completed in 18 hours whereas hydroamination of terminal alkyne 4′ was incomplete, even after 10 days. […] The regioselectivities induced by the propargyl and terminal alkyne substituents appeared to be reinforcing.

[5] = test system: SK-BR-3 HER2+ breast cancer cells; experiment: Cell viability assay (CellTiter-Glo), SK-BR-3; format: cell-based; details: Homo sapiens, SK-BR-3, 72 h, read-out: IC50, cell viability, without diboron
Description: Cell viability assay: SK-BR-3 or MDA-MB-231 cell were seeded at a density of 5,000-10,000 cells per well in media [100 μL, RPMI (SK-BR-3) or DMEM (MDA-MB-231) supplemented with 5% heat-inactivated human serum (Sigma), penicillin (100 units/mL), streptomycin (0.1 mg/mL)] in an opaque 96-well plate. PBS (100 μL) was added to the edge wells. The cells were incubated at 37° C. under ambient atmosphere with 5% CO2. […] The plates were incubated at 37° C. with 5% CO2 for 72 h (SK-BR-3) or 96 h (MDA-MB-231). After the plates were equilibrated at room temperature, CellTiter-Glo™ 2.0 reagent (50 μL, Promega™) was added to each well and mixed gently. The plates were incubated at room temperature for 10 min to stabilize the luminescence signal and analyzed by a microplate reader (Clariostar Plus, BMG Labtech) (FIG. 48 and FIG. 49).

[6] = test system: MDA-MB-231 HER2− breast cancer cells; experiment: Cell viability assay (CellTiter-Glo), MDA-MB-231; format: cell-based; details: Homo sapiens, MDA-MB-231, 96 h, read-out: IC50, cell viability, without diboron
Description: SK-BR-3 cells were treated with […]-100 nM trastuzumab-MMAE 61″ in the presence or absence of 50 μM B2pin2, cultured for 72 h, and assayed using the CellTiter-Glo® cell viability assay. The IC50 of the ADC was insensitive to the presence or absence of diboron and recapitulated the IC50 of MMAE alone.
This N-oxide-based drug delivery platform provides a convenient mechanism for loading drugs onto antibodies as well as an appealing alternative to existing methods for the fast and complete release of drug molecules from their carriers.
Cell culture: Cells were cultured in RPMI (SK-BR-3) or DMEM (MDA-MB-231) containing 10% FBS (Sigma), 100 units/mL penicillin, and 0.1 mg/mL streptomycin (Sigma) in a humidified chamber at 37° C. under an ambient atmosphere with 5% CO2. Cells were passaged and dissociated with 0.25% trypsin, 0.1% EDTA in HBSS (Corning). […]
Cell viability assay: SK-BR-3 or MDA-MB-231 cell were seeded at a density of 5,000-10,000 cells per well in media [100 μL, RPMI (SK-BR-3) or DMEM (MDA-MB-231) supplemented with 5% heat-inactivated human serum (Sigma), penicillin (100 units/mL), streptomycin (0.1 mg/mL)] in an opaque 96-well plate. […] The plates were incubated at room temperature for 10 min to stabilize the luminescence signal and analyzed by a microplate reader (Clariostar Plus, BMG Labtech) (FIG. 48 and FIG. 49).

[7] = Cross reactivity: hydroxylamine under Cu-catalyzed azide-alkyne cycloaddition (CuAAC) conditions; format: physicochemical; details: alkyne S17, THPTA, CuSO4, sodium ascorbate, PBS pH 7.4, 0-4 hours, HPLC
Description: A solution of N,N-diethylhydroxylamine (0.8 μL, 100 mM in PBS, pH 7.4) was added to this mixture to bring the total volume to 200 μL. The solution was immediately transferred to a clean HPLC vial to monitor the reaction progress and incubated at room temperature in the dark. The reaction was analyzed by HPLC (Pursuit 200 Å C18, 4.6×150 mm, 10 μm particles, 1 mL/min flow rate, eluent: isocratic 0% MeCN/H2O+0.1% TFA (1 minute), gradient 0→100% MeCN/H2O+0.1% TFA (14 minutes), isocratic 100% MeCN/H2O+0.1% TFA (1 minute)) at each time point (0, 1, 2, and 4 hours) and quantified using its absorbance at 280 nm.

[8] = Cross reactivity: hydroxylamine with trans-cyclooctene 19, aldehyde 20, cyclopropene 21, alkyne 22; format: physicochemical
Description: The reaction mixtures were analyzed by ^1H NMR spectroscopy.

T1 sequence (P00698 19-147): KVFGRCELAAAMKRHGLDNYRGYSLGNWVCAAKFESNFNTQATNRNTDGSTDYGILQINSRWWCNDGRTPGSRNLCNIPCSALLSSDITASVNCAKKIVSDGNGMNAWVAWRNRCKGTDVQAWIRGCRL

In the case of OB(O)B(O)O [Tetrahydroxydiboron, tetrahydroxydiboron], the “cleavage of 6″conj at 5 μM diboron reagent” value [1] is reported as “reach completion by 1 h”.

With O=C(NCCOCCOCCCCCCCl)OCCOC(F)(F)C#CCl [21′, 2-((3-chloro-1,1-difluoroprop-2-yn-1-yl)oxy)ethyl (2-(2-((6-chlorohexyl)oxy)ethoxy)ethyl)carbamate] the “live cell labeling (TAMRA signal)” value [2] was “localized at the cell surface and co-localized with the GFP signal of transfected cells”.

In the case of CC[N+]([O-])(CC)/C1=C/C(Oc2ccc([N+](=O)[O-])cc2)CCCCC1 (stereo not shown) [32″, (E)-N,N-Diethyl-3-(4-nitrophenoxy)cyclooct-1-en-1-amine oxide], the “time to complete reduction / conversion of enamine N-oxide” value [3] is reported as no more than 4 min.

In the case of OCCCCCC#CCl [6′, 7-chlorohept-6-yn-1-ol], the “time to completion of retro-Cope elimination” value [4] is reported as roughly 24 h.

Compound CC[C@H](C)[C@@H]([C@@H](CC(=O)N1CCCC1[C@H](OC)[C@@H](C)C(=O)N[C@H](C)[C@@H](O)c1ccccc1)OC)N(C)C(=O)[C@@H](NC(=O)[C@@H](NC)C(C)C)C(C)C (stereo partly shown) [MMAE, monomethyl auristatin E] has an IC50 [5] of 0.154 nM and an IC50 [6] of 0.75 nM.

For CCN(O)CC [compound 1, N,N-diethylhydroxylamine], the “reaction under CuAAC conditions” value [7] was “No reaction was observed”, the “reactivity with strained alkenes” value ([8]; 5 mM hydroxylamine with 5 mM cyclopropene 21 or trans-cyclooctene 19, d3-acetonitrile) was “proved unreactive” and the “cross-reactivity with 19, 20, 21 or 22” value ([8]; CD3CN, 1 hour, room temperature, 1H NMR) was “No change in the spectra was observed”.

In the case of CC[N+]([O-])(CC)/C1=C/C(Sc2ccc([N+](=O)[O-])cc2)CCCCC1 (stereo not shown) [38″, (E)-N,N-Diethyl-3-((4-nitrophenyl)thio)cyclooct-1-en-1-amine oxide], the “time to complete reduction / conversion of enamine N-oxide” value [3] is reported as no more than 4 min.
